Data reported in ChEMBL document CHEMBL1132282, “Discovery of novel non-peptide CCR1 receptor antagonists” (J Med Chem, 1999).

Each molecule was assayed against T1, C-C chemokine receptor type 1 (Homo sapiens) (UniProt P32246) (assay: Inhibition of [125I]-MIP-1 alpha binding to recombinant human C-C chemokine receptor type 1 expressed in HEK293 cells at 3 uM concentration).
T1 sequence (whole entry): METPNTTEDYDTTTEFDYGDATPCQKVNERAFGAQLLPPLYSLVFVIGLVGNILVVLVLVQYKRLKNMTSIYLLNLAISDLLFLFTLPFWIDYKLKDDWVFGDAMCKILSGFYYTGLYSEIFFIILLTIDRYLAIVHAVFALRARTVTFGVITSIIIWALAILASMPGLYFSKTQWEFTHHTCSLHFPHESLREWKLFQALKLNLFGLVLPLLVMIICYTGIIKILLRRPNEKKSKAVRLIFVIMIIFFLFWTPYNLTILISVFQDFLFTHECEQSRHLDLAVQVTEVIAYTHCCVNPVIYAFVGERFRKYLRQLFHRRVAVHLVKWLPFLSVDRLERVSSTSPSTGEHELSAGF
Assay type: cell-based

| Structure (SMILES) | inhibition |
| --- | --- |
| N#CC1(c2ccccc2)CCN(CCCC2(C#N)c3ccccc3CSc3ccccc32)CC1 (centres undefined) | 0% |
| N#CC1(CCCN2CCC(c3ccccc3)CC2)c2ccccc2CSc2ccccc21 (centres undefined) | 19% |
| CC(=O)C1(c2ccccc2)CCN(CCCC2(C#N)c3ccccc3CSc3ccccc32)CC1 (centres undefined) | 0% |
| N#CC1(CCCN2CCC(C(O)(c3ccccc3)c3ccccc3)CC2)c2ccccc2CSc2ccccc21 (centres undefined) | 0% |
